Experimental data as given in the NIST ThermoML archive (doi:10.1007/s10765-010-0737-5).
Numbers after ± are expanded uncertainties.

Key:
[1] = Liquid; for viscosity: 101 kPa, Capillary tube (Ostwald / Ubbelohde) method; for mass density: 101.3 kPa
[2] = xn = mol fraction of the nth substance listed; conditions: Liquid, x2 = 0; for viscosity: 101 kPa, Capillary tube (Ostwald / Ubbelohde) method; for mass density: 101.3 kPa

Structure (SMILES) | viscosity ([1]; 283.15 K) [mPa·s] | mass density ([1]; 283.15 K) [kg/m3] | viscosity ([1]; 288.15 K) [mPa·s] | mass density ([1]; 288.15 K) [kg/m3] | viscosity ([1]; 293.15 K) [mPa·s] | mass density ([1]; 293.15 K) [kg/m3] | viscosity ([1]; 298.15 K) [mPa·s] | mass density ([1]; 298.15 K) [kg/m3] | viscosity ([1]; 303.15 K) [mPa·s] | mass density ([1]; 303.15 K) [kg/m3] | viscosity ([1]; 308.15 K) [mPa·s] | mass density ([1]; 308.15 K) [kg/m3] | viscosity ([1]; 313.15 K) [mPa·s] | mass density ([1]; 313.15 K) [kg/m3] | viscosity ([2]; 283.15 K) [mPa·s] | mass density ([2]; 283.15 K) [kg/m3] | viscosity ([2]; 288.15 K) [mPa·s] | mass density ([2]; 288.15 K) [kg/m3] | viscosity ([2]; 293.15 K) [mPa·s] | mass density ([2]; 293.15 K) [kg/m3] | also measured
CC(C)CCl [1-chloro-2-methylpropane] | 0.5155 ± 0.0053 | 888.845 ± 0.6 | 0.4833 ± 0.005 | 883.211 ± 0.61 | 0.454 ± 0.0047 | 877.539 ± 0.63 | 0.4296 ± 0.0045 | 871.533 ± 0.64 | 0.4112 ± 0.0044 | 866.096 ± 0.65 | 0.3921 ± 0.0042 | 860.319 ± 0.66 | 0.3726 ± 0.0041 | 853.902 ± 0.67 |  |  |  |  |  |  | 
CC(C)(C)Cl [2-chloro-2-methylpropane] | 0.598 ± 0.006 | 855.249 ± 0.67 | 0.5538 ± 0.0056 | 849.243 ± 0.68 | 0.5135 ± 0.0053 | 843.191 ± 0.69 | 0.4768 ± 0.0049 | 837.096 ± 0.71 | 0.4438 ± 0.0047 | 830.958 ± 0.72 | 0.4196 ± 0.0045 | 824.772 ± 0.73 | 0.3904 ± 0.0042 | 818.536 ± 0.74 |  |  |  |  |  |  | 
CC(C)OC(C)C [diisopropyl ether] + CC(C)(C)Cl |  |  |  |  |  |  |  |  |  |  |  |  |  |  | 0.3646 ± 0.004 | 733.833 ± 0.92 | 0.3486 ± 0.0039 | 728.692 ± 0.93 | 0.334 ± 0.0037 | 723.509 ± 0.94 | viscosity ([2]; 298.15 K): 0.3178 ± 0.0036 mPa·s; mass density ([2]; 298.15 K): 718.289 ± 0.95 kg/m3; viscosity ([2]; 303.15 K): 0.3001 ± 0.0034 mPa·s; mass density ([2]; 303.15 K): 713.032 ± 0.96 kg/m3; viscosity ([2]; 308.15 K): 0.2857 ± 0.0033 mPa·s; mass density ([2]; 308.15 K): 707.727 ± 0.97 kg/m3; viscosity ([2]; 313.15 K): 0.2723 ± 0.0032 mPa·s; mass density ([2]; 313.15 K): 702.378 ± 0.98 kg/m3
CC(C)OC(C)C [diisopropyl ether] + CC(C)CCl |  |  |  |  |  |  |  |  |  |  |  |  |  |  | 0.3646 ± 0.004 | 733.833 ± 0.92 | 0.3486 ± 0.0039 | 728.692 ± 0.93 | 0.334 ± 0.0037 | 723.509 ± 0.94 | viscosity ([2]; 298.15 K): 0.3178 ± 0.0036 mPa·s; mass density ([2]; 298.15 K): 718.289 ± 0.95 kg/m3; viscosity ([2]; 303.15 K): 0.3001 ± 0.0034 mPa·s; mass density ([2]; 303.15 K): 713.032 ± 0.96 kg/m3; viscosity ([2]; 308.15 K): 0.2857 ± 0.0033 mPa·s; mass density ([2]; 308.15 K): 707.727 ± 0.97 kg/m3; viscosity ([2]; 313.15 K): 0.2723 ± 0.0032 mPa·s; mass density ([2]; 313.15 K): 702.378 ± 0.98 kg/m3
CC(C)OC(C)C [diisopropyl ether] + CCC(C)Cl |  |  |  |  |  |  |  |  |  |  |  |  |  |  | 0.3646 ± 0.004 | 733.833 ± 0.92 | 0.3486 ± 0.0039 | 728.692 ± 0.93 | 0.334 ± 0.0037 | 723.509 ± 0.94 | viscosity ([2]; 298.15 K): 0.3178 ± 0.0036 mPa·s; mass density ([2]; 298.15 K): 718.289 ± 0.95 kg/m3; viscosity ([2]; 303.15 K): 0.3001 ± 0.0034 mPa·s; mass density ([2]; 303.15 K): 713.032 ± 0.96 kg/m3; viscosity ([2]; 308.15 K): 0.2857 ± 0.0033 mPa·s; mass density ([2]; 308.15 K): 707.727 ± 0.97 kg/m3; viscosity ([2]; 313.15 K): 0.2723 ± 0.0032 mPa·s; mass density ([2]; 313.15 K): 702.378 ± 0.98 kg/m3
CCC(C)Cl (stereo unspecified) [2-chlorobutane] | 0.4631 ± 0.0048 | 884.34 ± 0.61 | 0.4365 ± 0.0046 | 878.756 ± 0.62 | 0.4167 ± 0.0044 | 873.13 ± 0.63 | 0.3993 ± 0.0043 | 867.474 ± 0.65 | 0.38 ± 0.0041 | 861.779 ± 0.66 | 0.3615 ± 0.004 | 856.044 ± 0.67 | 0.3443 ± 0.0038 | 850.266 ± 0.68 |  |  |  |  |  |  | 
CC(C)OC(C)C [diisopropyl ether] | 0.3646 ± 0.004 | 733.833 ± 0.92 | 0.3486 ± 0.0039 | 728.692 ± 0.93 | 0.334 ± 0.0037 | 723.509 ± 0.94 | 0.3178 ± 0.0036 | 718.289 ± 0.95 | 0.3001 ± 0.0034 | 713.032 ± 0.96 | 0.2857 ± 0.0033 | 707.727 ± 0.97 | 0.2723 ± 0.0032 | 702.378 ± 0.98 |  |  |  |  |  |  | 
CC(C)OC(C)C [diisopropyl ether] + CCCCCl |  |  |  |  |  |  |  |  |  |  |  |  |  |  | 0.3646 ± 0.004 | 733.833 ± 0.92 | 0.3486 ± 0.0039 | 728.692 ± 0.93 | 0.334 ± 0.0037 | 723.509 ± 0.94 | viscosity ([2]; 298.15 K): 0.3178 ± 0.0036 mPa·s; mass density ([2]; 298.15 K): 718.289 ± 0.95 kg/m3; viscosity ([2]; 303.15 K): 0.3001 ± 0.0034 mPa·s; mass density ([2]; 303.15 K): 713.032 ± 0.96 kg/m3; viscosity ([2]; 308.15 K): 0.2857 ± 0.0033 mPa·s; mass density ([2]; 308.15 K): 707.727 ± 0.97 kg/m3; viscosity ([2]; 313.15 K): 0.2723 ± 0.0032 mPa·s; mass density ([2]; 313.15 K): 702.378 ± 0.98 kg/m3
CCCCCl [1-chlorobutane] | 0.4993 ± 0.0051 | 897.339 ± 0.59 | 0.4701 ± 0.0049 | 891.855 ± 0.6 | 0.4433 ± 0.0047 | 886.335 ± 0.61 | 0.4214 ± 0.0045 | 880.705 ± 0.62 | 0.405 ± 0.0043 | 875.204 ± 0.63 | 0.3885 ± 0.0042 | 869.585 ± 0.64 | 0.3642 ± 0.004 | 863.882 ± 0.65 |  |  |  |  |  |  | 
